pIC50: −log10 of the molar value.
What was measured:
[1] = biological target: 11-beta-hydroxysteroid dehydrogenase 1 (Homo sapiens, UniProt P28845); assay: Inhibition of human 11beta-HSD1 expressed in HEK293 cells after 2 hrs by scintillation proximity assay; assay type: cell-based
[2] = biological target: T1, 11-beta-hydroxysteroid dehydrogenase type 2 (Homo sapiens) (UniProt P80365); assay: Inhibition of human 11beta-HSD2 at 10 uM by scintillation proximity assay
T1 sequence (whole entry): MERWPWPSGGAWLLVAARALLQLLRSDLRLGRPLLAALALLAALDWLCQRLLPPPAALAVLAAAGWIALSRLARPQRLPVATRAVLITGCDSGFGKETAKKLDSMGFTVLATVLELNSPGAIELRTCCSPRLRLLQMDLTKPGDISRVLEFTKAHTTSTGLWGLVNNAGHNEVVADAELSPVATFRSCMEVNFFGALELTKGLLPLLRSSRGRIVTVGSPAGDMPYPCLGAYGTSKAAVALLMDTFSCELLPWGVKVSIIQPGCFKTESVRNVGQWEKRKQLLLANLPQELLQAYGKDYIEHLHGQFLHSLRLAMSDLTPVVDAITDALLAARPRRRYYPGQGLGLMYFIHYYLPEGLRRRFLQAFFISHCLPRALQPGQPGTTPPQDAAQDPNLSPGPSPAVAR

[3] = biological target: 11-beta-hydroxysteroid dehydrogenase 1 (Mus musculus, UniProt P50172); assay: Inhibition of mouse 11beta-HSD1 expressed in CHO cells after 4 hrs by scintillation proximity assay; assay type: cell-based
[4] = tested on: Mus musculus; assay: Inhibition of HSD1 in C57BL/6 mouse kidney at 10 mg/kg, ip; assay type: functional; details: C57BL/6, Kidney, route intraperitoneal
[5] = tested on: Mus musculus; assay: Inhibition of HSD1 in C57BL/6 mouse adipose tissue at 10 mg/kg, ip; assay type: functional; details: C57BL/6, Adipose tissue, route intraperitoneal
[6] = tested on: Mus musculus; assay: Inhibition of HSD1 in C57BL/6 mouse liver at 10 mg/kg, ip; assay type: functional; details: C57BL/6, Liver, route intraperitoneal
[7] = tested on: Mus musculus; assay: Inhibition of HSD1 in C57BL/6 mouse brain at 10 mg/kg, ip; assay type: functional; details: C57BL/6, Brain, route intraperitoneal

11-beta-hydroxysteroid dehydrogenase 1 (Homo sapiens, UniProt P28845), sequence (P28845 whole entry): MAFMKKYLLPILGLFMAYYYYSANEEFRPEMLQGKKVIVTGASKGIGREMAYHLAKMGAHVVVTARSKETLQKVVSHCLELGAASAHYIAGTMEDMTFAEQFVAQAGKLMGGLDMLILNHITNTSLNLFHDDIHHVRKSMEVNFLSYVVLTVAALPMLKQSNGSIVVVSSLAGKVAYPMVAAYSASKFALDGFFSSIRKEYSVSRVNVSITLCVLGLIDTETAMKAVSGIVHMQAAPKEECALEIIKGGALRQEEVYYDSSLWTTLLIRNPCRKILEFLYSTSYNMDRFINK
11-beta-hydroxysteroid dehydrogenase 1 (Mus musculus, UniProt P50172), sequence (P50172 whole entry): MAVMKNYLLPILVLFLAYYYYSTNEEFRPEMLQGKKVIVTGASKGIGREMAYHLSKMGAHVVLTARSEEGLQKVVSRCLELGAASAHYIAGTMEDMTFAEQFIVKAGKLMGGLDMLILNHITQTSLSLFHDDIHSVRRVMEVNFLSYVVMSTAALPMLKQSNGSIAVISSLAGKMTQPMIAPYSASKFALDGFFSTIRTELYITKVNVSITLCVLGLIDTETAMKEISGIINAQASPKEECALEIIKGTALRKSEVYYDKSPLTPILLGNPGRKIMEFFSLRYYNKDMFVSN

| SMILES | pIC50 [1] | inhibition [2] | other results |
| --- | --- | --- | --- |
| Cc1ccc(C23CC4CC(CC(C(=O)N5CCN(S(=O)(=O)Cc6ccccc6)CC5)(C4)C2)C3)cc1 | 5.11 | 26% | – |
| O=C(N1CCN(Cc2ccccc2)CC1)C12CC3CC(CC(C3)C1)C2 | 5.14 | 7% | – |
| Cc1ccc(C23CC4CC(CC(C(=O)N5CCN(C(C#N)C(C)C)CC5)(C4)C2)C3)cc1 (stereo not given) | 5.00 | 56% | – |
| CCN1CCN(C(=O)Cc2ccccc2)CC1 | 5.14 | 11% | – |
| CCN1CCN(C(=O)C(C)(C)C)CC1 | < 4.00 | 0% | – |
| CCN1CCN(C(=O)C23CC4CC(CC(C4)C2)C3)CC1 | 6.12 | 11% | pIC50 [3]: 6.52 |
| CCN1CCN(C(=O)C2CCCCC2)CC1 | 4.28 | 0% | – |
| O=C(N1CCN(Cc2ccncc2)CC1)C12CC3CC(CC(C3)C1)C2 | 5.14 | 0% | – |
| Cc1ccc(C23CC4CC(CC(C(=O)N5CCN(CCO)CC5)(C4)C2)C3)cc1 | 6.30 | 40% | pIC50 [3]: 7.37 |
| Cc1ccc(C23CC4CC(CC(C(=O)N5CCN(CCc6ccccc6)CC5)(C4)C2)C3)cc1 | 5.72 | 53% | – |
| Cc1ccc(C23CC4CC(CC(C(=O)N5CCN(S(=O)(=O)c6ccccc6)CC5)(C4)C2)C3)cc1 | 4.19 | 48% | – |
| Cc1ccc(C23CC4CC(CC(C(=O)N5CCN(C(=O)c6ccccc6)CC5)(C4)C2)C3)cc1 | 4.44 | 0% | – |
| COCCN1CCN(C(=O)C23CC4CC(CC(C4)C2)C3)CC1 | 4.92 | 7% | – |
| CCN1CCN(C(=O)CC23CC4CC(CC(C4)C2)C3)CC1 | 5.39 | 1% | – |
| Cc1ccc(C23CC4CC(CC(C(=O)N5CCN(Cc6ccncc6)CC5)(C4)C2)C3)cc1 | 5.09 | 0% | – |
| CCN1CCN(C(=O)C2(c3ccc(F)cc3)CCCC2)CC1 | 4.92 | 0% | – |
| O=C(N1CCc2ccccc2C1)C12CC3CC(CC(C3)C1)C2 | 5.25 | – | – |
| O=C(N1CCN(S(=O)(=O)c2ccccc2)CC1)C12CC3CC(CC(C3)C1)C2 | < 4.00 | 35% | – |
| O=C(N1CCN(c2ccccc2)CC1)C12CC3CC(CC(C3)C1)C2 | < 4.00 | 0% | – |
| CCN1CCN(C(=O)C23CC4CC(CC(Cc5ccccc5)(C4)C2)C3)CC1 | 6.00 | 0% | – |
| N#CC(c1ccccc1)N1CCN(C(=O)C23CC4CC(CC(C4)C2)C3)CC1 (stereo not given) | 4.62 | 39% | – |
| O=C(N1CCCCC1)C12CC3CC(CC(O)(C3)C1)C2 | 5.14 | 9% | – |
| O=C(N1CCNCC1)C12CC3CC(CC(C3)C1)C2 | 5.09 | 31% | – |
| CCN1CCN(C(=O)C2=C(C)c3ccccc3C2)CC1 | 4.82 | 0% | – |

| SMILES | pIC50 [1] | inhibition [2] | other results |
| --- | --- | --- | --- |
| O=C(N1CCN(CCO)CC1)C12CC3CC(CC(C3)C1)C2 | 5.83 | 31% | pIC50 [3]: 6.31 |
| O=C(N1CCN(S(=O)(=O)Cc2ccccc2)CC1)C12CC3CC(CC(C3)C1)C2 | 4.89 | 39% | – |
| CN1CCN(C(=O)C23CC4CC(CC(C4)C2)C3)CC1 | 6.15 | 13% | – |
| CC(C)C(C#N)N1CCN(C(=O)C23CC4CC(CC(C4)C2)C3)CC1 (stereo not given) | 4.70 | 45% | – |
| CCN1CCN(C(=O)C2CCC(C(C)(C)C)CC2)CC1 (stereo not given) | 4.70 | 0% | pIC50 [3]: 5.92 |
| Cc1ccc(C23CC4CC(CC(C(=O)N5CCN(c6ccccc6)CC5)(C4)C2)C3)cc1 | 5.14 | – | – |
| O=C(C1C2CC3CC(C2)CC1C3)N1CCCCC1 (stereo not given) | 6.70 | 39% | – |
| O=C(N1CCCC1)C12CC3CC(CC(C3)C1)C2 | 6.30 | 37% | – |
| CCN1CCN(C(=O)C23CC4CC(C2)CC(c2ccc(OC)cc2)(C4)C3)CC1 | 6.22 | 51% | – |
| CCN1CCN(C(=O)C23CC4CC(CC(O)(C4)C2)C3)CC1 | 4.28 | – | – |
| CCN1CCN(C(=O)CC2CCCCC2)CC1 | < 4.00 | 40% | – |
| O=C(c1ccccc1)N1CCN(C(=O)C23CC4CC(CC(C4)C2)C3)CC1 | < 4.00 | 20% | – |
| CCN1CCN(C(=O)c2ccccc2)CC1 | < 4.00 | 0% | – |
| O=C(N1CCCc2ccccc21)C12CC3CC(CC(C3)C1)C2 | 5.73 | 0% | pIC50 [3]: 6.32 |
| Cc1ccc(C23CC4CC(CC(C(=O)N5CCN(C)CC5)(C4)C2)C3)cc1 | 7.10 | 0% | inhibition in vivo at 10 mg/kg [4]: 0%; inhibition in vivo at 10 mg/kg [5]: 54%; inhibition in vivo at 10 mg/kg [6]: 63%; pIC50 [3]: 7.09; inhibition in vivo at 10 mg/kg [7]: 39% |
| COCCN1CCN(C(=O)C23CC4CC(C2)CC(c2ccc(C)cc2)(C4)C3)CC1 | 5.68 | 41% | – |
| Cc1ccc(C23CC4CC(CC(C(=O)N5CCN(C(C#N)c6ccccc6)CC5)(C4)C2)C3)cc1 (stereo not given) | 5.68 | 48% | – |
| CCN1CCN(C(=O)C2CC3CCC2C3)CC1 (stereo not given) | 4.36 | 0% | – |
| CCN1CCN(C(=O)C2CC2)CC1 | < 4.00 | 0% | – |
| O=C(N1CCC2CCCCC2C1)C12CC3CC(CC(C3)C1)C2 (stereo not given) | 6.07 | 0% | pIC50 [3]: 6.64 |
| Cc1ccc(C23CC4CC(CC(C(=O)N5CCN(Cc6ccccc6)CC5)(C4)C2)C3)cc1 | 5.82 | 80% | – |
| CCN1CCN(C(=O)CCC2CCCCC2)CC1 | 4.32 | 0% | – |
| O=C(N1CCN(CCc2ccccc2)CC1)C12CC3CC(CC(C3)C1)C2 | 4.33 | 0% | – |
| O=C(N1CCCCC1)C12CC3CC(CC(C3)C1)C2 | 6.71 | 0% | pIC50 [3]: 6.87 |
